Measured values reported in PubChem BioAssay (NCI).
“And” between values parts separate entries of the source, which are not always exact repeats. Equal entries are not always repeated.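 Test compounds were applied to cells in 96-well plates for 48 hours at 5 doses. GI50 is the concentration that inhibits growth by half. TGI marks complete inhibition of growth.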

Legend:
Assay in all cases: DTP human tumour cell line panel, 48 h
786-0 renal = test system: 786-0 renal
A549 NSCLC = test system: A549 NSCLC
HCC-2998 colon = test system: HCC-2998 colon
HT29 colon = test system: HT29 colon
IGROV1 ovarian = test system: IGROV1 ovarian
MOLT-4 leukemia = test system: MOLT-4 leukemia
NCI-H460 lung = test system: NCI-H460 lung
OVCAR-3 ovarian = test system: OVCAR-3 ovarian
PC-3 prostate = test system: PC-3 prostate
SF-539 CNS = test system: SF-539 CNS

Structure (SMILES)	GI50 (786-0 renal)	TGI (786-0 renal)	GI50 (A549 NSCLC)	TGI (A549 NSCLC)	GI50 (HCC-2998 colon)	TGI (HCC-2998 colon)	GI50 (HT29 colon)	TGI (HT29 colon)	GI50 (IGROV1 ovarian)	TGI (IGROV1 ovarian)	GI50 (MOLT-4 leukemia)	TGI (MOLT-4 leukemia)	GI50 (NCI-H460 lung)	TGI (NCI-H460 lung)	GI50 (OVCAR-3 ovarian)	TGI (OVCAR-3 ovarian)	GI50 (PC-3 prostate)	TGI (PC-3 prostate)	GI50 (SF-539 CNS)	TGI (SF-539 CNS)
CS(=O)c1ccc(-c2nc(-c3ccc(F)cc3)c(-c3ccncc3)[nH]2)cc1 (configuration not stated)	16.8 µM	38.8 µM	35 µM	> 100 µM	33.6 µM	> 89.7 µM	10.7 µM	> 89.4 µM	21.9 µM	> 85.5 µM	28.3 µM	> 96.4 µM	33.5 µM	> 100 µM	25.9 µM	> 100 µM	35.6 µM	> 89.4 µM	44.8 µM	> 100 µM
O=C1NC(=O)C2(CCC(O)C2)c2cc[n+]([O-])cc21 (configuration not stated)		> 100 µM		> 100 µM		> 100 µM		> 100 µM		> 100 µM		> 100 µM		> 100 µM		> 100 µM		> 100 µM		> 100 µM
CC[C@@H](C)[C@H]([C@H](CC(=O)N1CCC[C@@H]1[C@@H](OC)[C@H](C)C(=O)N[C@H](Cc1ccccc1)c1nccs1)OC)N(C)C(=O)[C@H](NC(=O)[C@@H](C(C)C)N(C)C)C(C)C		44.1 µM	0.000425 µM		0.000425 µM	0.00176 µM and 0.00234 µM		0.000849 µM	0.000425 µM			> 28.4 µM		0.00195 µM		0.000158 µM and < 0.087 µM	7.77e-06 µM	> 65.8 µM		0.00161 µM
C=C1CC2(OC1=O)c1ccccc1C=Cc1ccccc12		6.16 µM		23.3 µM		13.5 µM		6.8 µM		15.9 µM		5.4 µM		25.4 µM		8.9 µM		16.3 µM		6.72 µM
BrC(Br)(Br)c1cnc2ccccc2n1	2.02 µM	5 µM	1.75 µM	4.66 µM	1.67 µM	3.6 µM	1.06 µM	2.67 µM	2.2 µM	6.8 µM	2.46 µM	8.54 µM	1.36 µM	4.21 µM	1.5 µM	3.04 µM	2.44 µM	9.89 µM	2.21 µM	4.86 µM
CC(=O)NCCCCCCNC(C)=O		> 10000 µM		> 9660 µM		> 8610 µM		> 10000 µM		> 10000 µM		> 10000 µM		> 7500 µM		9840 µM		> 10000 µM		> 10000 µM
Oc1ccc(Br)cc1/C=N/NC(=S)NC12CC3CC(CC(C3)C1)C2	2.32 µM	5.05 µM	1.82 µM	5.07 µM	1.95 µM	4.6 µM	2.02 µM	3.93 µM	1.81 µM	5.89 µM	1.89 µM	6.81 µM	0.645 µM	2.17 µM	1.67 µM	3.71 µM	1.64 µM	4.94 µM	3.19 µM	11.3 µM
O=C1C(Cl)=C(Nc2cccc(C(F)(F)F)c2)C(=O)N1Cc1ccccc1Cl	1.78 µM	16.5 µM	7.68 µM	27.5 µM	12.6 µM	28 µM	4.9 µM	32.9 µM	0.186 µM	11.2 µM	2.56 µM	8.53 µM	6.19 µM	22.4 µM	4.33 µM	24.8 µM	4.72 µM	18.2 µM	1.91 µM	10.7 µM
CCCC[P+](c1ccccc1)(c1ccccc1)c1ccccc1	19.5 µM	> 100 µM	4.4 µM	> 100 µM	1.42 µM	> 100 µM	3.03 µM	> 100 µM	11.4 µM	> 100 µM	5.72 µM	> 100 µM	1.96 µM	24.7 µM	1.13 µM	23.3 µM	1.16 µM	68.3 µM	7.09 µM	> 100 µM
CCCCCC(=O)OCC(=O)O[C@@H]1C[C@]2(C(C)C)O[C@@]1(C)[C@@H]1CC[C@@H](C)[C@H]1[C@@H]2OC(=O)/C=C/c1ccccc1	0.789 µM	13.6 µM	> 60.3 µM	> 100 µM	> 62.3 µM	> 100 µM	> 37.4 µM	> 79.1 µM	> 33.4 µM	> 55.8 µM	> 45.5 µM	> 100 µM	> 60.6 µM	> 94.8 µM	> 46.6 µM	> 67.3 µM	8.58 µM	> 100 µM	> 51.3 µM	> 76.2 µM
O=C(Nc1cccc2cccnc12)c1ccc(N2C(=O)[C@@H]3[C@H](C2=O)[C@@H]2C=C[C@H]3C2)cc1	> 74.2 µM	> 100 µM	26.2 µM	> 100 µM	35.4 µM	> 100 µM	18 µM	62.4 µM	32.7 µM	> 100 µM	22.1 µM	> 66.6 µM	34.6 µM	> 100 µM	20.7 µM	> 100 µM	25.1 µM	> 100 µM	77.8 µM	> 100 µM
COc1cccc2c1cc([N+](=O)[O-])c1c(C(=O)O)cc3c(c12)OCO3	27.6 µM	> 100 µM	25.8 µM	> 100 µM	3.91 µM	18.9 µM and 9.62 µM	0.352 µM	2.42 µM and 10.4 µM	34.3 µM	> 100 µM	40.9 µM	> 100 µM	18.2 µM	63.7 µM and > 100 µM	26.1 µM	71.2 µM and > 100 µM	27.8 µM	> 100 µM		> 75.8 µM
O=C(N=Nc1c(O)[nH]c2c(Cl)cc(Cl)cc12)c1ccncc1		36.4 µM		> 100 µM		> 100 µM		75.7 µM		> 100 µM		> 100 µM		> 100 µM		37.5 µM		40.2 µM		51.1 µM
COc1ccc2c(c1OC)-c1c(c3ccc([N+](=O)[O-])cc3c(=O)n1CCCN=[N+]=[N-])C2=O	3.44 µM	15.8 µM	4.18 µM	> 100 µM	79.9 µM	> 100 µM	31.7 µM	> 100 µM	1.02 µM	23.9 µM	3.12 µM	> 100 µM	9.97 µM	> 100 µM	56.1 µM	> 100 µM	22 µM	> 100 µM	5.23 µM	40.3 µM
CCCC(=O)NC(c1ccc2c(c1)OCO2)c1ccc2cccnc2c1O (configuration not stated)	1.64 µM	14.7 µM	2.27 µM	> 100 µM	2.21 µM	> 100 µM	3.92 µM	> 100 µM	0.888 µM	> 100 µM	0.441 µM	> 100 µM	0.527 µM	10.6 µM	0.427 µM	15.4 µM	0.729 µM	> 100 µM	1.41 µM	> 100 µM
COc1ccc2[nH]c(-c3cccc(N(C)C)c3)cc(=O)c2c1	0.539 µM	> 100 µM	4.46 µM	> 100 µM	0.472 µM	3.29 µM and 2.29 µM	0.345 µM	1.46 µM and 3.21 µM		> 100 µM		2.71 µM and 1.56 µM	0.564 µM	> 100 µM		0.368 µM	0.435 µM	> 100 µM	0.391 µM	
COc1cc(-c2nc(SCC(=O)Nc3ccc(C(C)=O)cc3)[nH]c(=O)c2C#N)cc(OC)c1OC	41.7 µM	> 100 µM	> 100 µM	> 100 µM	> 100 µM	> 100 µM	55.7 µM	> 100 µM	53.4 µM	> 100 µM	36.4 µM	> 100 µM	39.1 µM	> 100 µM	34 µM	> 100 µM	36.4 µM	> 100 µM	29.6 µM	> 100 µM
O=C1C=CN(C2OC(CO)C(O)C2O)C(=O)C1 (configuration not stated)		1260 µM	28.9 µM	625 µM and > 2500 µM		625 µM and > 2500 µM	13 µM	625 µM and > 1730 µM	77 µM	625 µM and > 2210 µM		476 µM	0.728 µM	625 µM and 569 µM		> 1870 µM		> 2500 µM	146 µM	625 µM and 1800 µM
O=C(O)c1ccc(-c2ccc(C(=O)O)cc2I)c(I)c1	> 100 µM	> 100 µM	> 100 µM	> 100 µM	> 100 µM	> 100 µM	> 100 µM	> 100 µM	> 100 µM	> 100 µM	> 100 µM	> 100 µM	> 100 µM	> 100 µM	> 100 µM	> 100 µM	> 100 µM	> 100 µM	> 100 µM	> 100 µM
COC(=O)[C@@H](Cc1c[nH]c2ccccc12)NC(=O)/C=C/c1ccccc1	3.96 µM	> 100 µM	3.91 µM	> 100 µM	2.65 µM	8.56 µM	3.9 µM	14.1 µM	7.07 µM	> 100 µM	3.57 µM	> 100 µM	3.26 µM	15.1 µM	2.83 µM	7.78 µM	3.22 µM	68.2 µM	1.95 µM	5.29 µM
Oc1ccc(/C=N/Nc2nc3ccccc3s2)c(O)c1	3.68 µM	53.8 µM	2.54 µM	51.9 µM	3.76 µM	19.4 µM	3.61 µM	13.6 µM	0.904 µM	10.8 µM	2.24 µM	88.1 µM	1.78 µM	5.21 µM	1.92 µM	12.8 µM	4 µM	> 100 µM	1.89 µM	9.82 µM
